Source: publication PMC11823630, “In vitro potentiation of tetracyclines in Pseudomonas aeruginosa by RW01, a new cyclic peptide” (Antimicrobial Agents and Chemotherapy, 2024)
Values after ≈ are worked out from the molar mass of the structure shown.

What was measured:
P. aeruginosa PAO1, WT = assay: MIC, Sensititre custom plate; format: cell-based; details: Pseudomonas aeruginosa, PAO1, read-out: MIC, Sensititre
Description: (§1) Selection of resistant mutants was performed for minocycline with and without RW01 in three independent replicates for wild-type P. aeruginosa reference strain PAO1. Tubes containing Mueller-Hinton broth (MHB) were inoculated and incubated for 24 h at 37°C. Afterward, 1/100 dilution of each tube was incubated at 37°C in MHB to late-exponential growth phase, measured by spectrophotometry at OD600. […] A control plate without antibiotic was included as inoculum control. After overnight incubation, colony counting of each treatment was performed to analyze the generation of resistant population. The mutant prevention concentration (MPC) was defined as the lowest concentration of antibiotic yielding no growth of resistant mutants. Selected mutants were checked for susceptibility profiles by using a Sensititre custom plate (Thermo Fisher Scientific, Massachusetts, USA) for Gram-negative bacteria, following the manufacturer’s instructions.

[1] = system: PAO1 mutant MIN16_1, nalD(T43P); assay: MIC, Sensititre custom plate; format: cell-based; details: Pseudomonas aeruginosa, PAO1, read-out: MIC, Sensititre
Description: as §1

[2] = system: PAO1 mutant MIN16_2, nalC(aa9∆4), pilQ(nt46∆1); assay: MIC, Sensititre custom plate; format: cell-based; details: Pseudomonas aeruginosa, PAO1, read-out: MIC, Sensititre
Description: as §1

[3] = system: PAO1 mutant MIN16_3, nfxB(nt79∆14), pilB(N349K); assay: MIC, Sensititre custom plate; format: cell-based; details: Pseudomonas aeruginosa, PAO1, read-out: MIC, Sensititre
Description: as §1

[4] = system: PAO1 mutant MIN16_4, nalC(T50P), pilM(Q62X); assay: MIC, Sensititre custom plate; format: cell-based; details: Pseudomonas aeruginosa, PAO1, read-out: MIC, Sensititre
Description: as §1

[5] = system: PAO1 mutant MIN1_RW01_1, pmrB(Y98N); assay: MIC, Sensititre custom plate; format: cell-based; details: Pseudomonas aeruginosa, PAO1, read-out: MIC, Sensititre
Description: as §1

[6] = system: PAO1 mutant MIN1_RW01_2, mexR(G58E), pilB(G326D), hutC(Y181X); assay: MIC, Sensititre custom plate; format: cell-based; details: Pseudomonas aeruginosa, PAO1, read-out: MIC, Sensititre
Description: as §1

[7] = system: PAO1 mutant MIN1_RW01_3, pmrB(V215L); assay: MIC, Sensititre custom plate; format: cell-based; details: Pseudomonas aeruginosa, PAO1, read-out: MIC, Sensititre
Description: as §1

[8] = system: PAO1 mutant MIN2_RW01_1, pmrB(V215L); assay: MIC, Sensititre custom plate; format: cell-based; details: Pseudomonas aeruginosa, PAO1, read-out: MIC, Sensititre
Description: as §1

[9] = system: PAO1 mutant MIN2_RW01_2, pmrB(M292T); assay: MIC, Sensititre custom plate; format: cell-based; details: Pseudomonas aeruginosa, PAO1, read-out: MIC, Sensititre
Description: as §1

[10] = system: PAO1 mutant MIN2_RW01_3, parS(V152A); assay: MIC, Sensititre custom plate; format: cell-based; details: Pseudomonas aeruginosa, PAO1, read-out: MIC, Sensititre
Description: as §1

[11] = system: PAO1 mutant MIN2_RW01_4, pmrB(M292T); assay: MIC, Sensititre custom plate; format: cell-based; details: Pseudomonas aeruginosa, PAO1, read-out: MIC, Sensititre
Description: as §1

[12] = system: PAO1 mutant MIN32_1, mexR(R63H), pilB(N349K), PA0646(V316G); assay: MIC, Sensititre custom plate; format: cell-based; details: Pseudomonas aeruginosa, PAO1, read-out: MIC, Sensititre
Description: as §1

[13] = system: PAO1 mutant MIN4_RW01_1, pmrB(R429H); assay: MIC, Sensititre custom plate; format: cell-based; details: Pseudomonas aeruginosa, PAO1, read-out: MIC, Sensititre
Description: as §1

[14] = system: PAO1 mutant MIN4_RW01_3, pmrB(M292T); assay: MIC, Sensititre custom plate; format: cell-based; details: Pseudomonas aeruginosa, PAO1, read-out: MIC, Sensititre
Description: as §1

[15] = system: PAO1 mutant MIN4_RW01_4, pmrB(Y98N); assay: MIC, Sensititre custom plate; format: cell-based; details: Pseudomonas aeruginosa, PAO1, read-out: MIC, Sensititre
Description: as §1

[16] = system: PAO1 mutant MIN8_1, nalD(R3C), pilM(Q62X); assay: MIC, Sensititre custom plate; format: cell-based; details: Pseudomonas aeruginosa, PAO1, read-out: MIC, Sensititre
Description: as §1

[17] = system: PAO1 mutant MIN8_2, pilZ(nt18InsT); assay: MIC, Sensititre custom plate; format: cell-based; details: Pseudomonas aeruginosa, PAO1, read-out: MIC, Sensititre
Description: as §1

[18] = system: PAO1 mutant MIN8_3, pilZ(nt18InsT); assay: MIC, Sensititre custom plate; format: cell-based; details: Pseudomonas aeruginosa, PAO1, read-out: MIC, Sensititre
Description: as §1

[19] = system: PAO1 mutant MIN8_4, pilZ(nt18InsT); assay: MIC, Sensititre custom plate; format: cell-based; details: Pseudomonas aeruginosa, PAO1, read-out: MIC, Sensititre
Description: as §1

[20] = system: PAO1 mutant MIN1_RW01_4, pmrB(F124L); assay: microbe, parasite or virus in culture; format: cell-based; details: Pseudomonas aeruginosa, PAO1, read-out: MIC, Sensititre
Description: as §1

[21] = system: PAO1 mutant MIN4_RW01_2, pmrB(F124S); assay: microbe, parasite or virus in culture; format: cell-based; details: Pseudomonas aeruginosa, PAO1, read-out: MIC, Sensititre
Description: as §1

P. aeruginosa 125A = assay: MIC, CLSI broth microdilution in BD Phoenix AST Broth; format: cell-based, Pseudomonas aeruginosa; details: Pseudomonas aeruginosa; strain 125A; agent alone; 37°C, 18–22 h; three biological replicates
Description: (§2) MIC for RW01 was also tested.
(§3) FIC of RW01 (FICRW01)=MIC of RW01 in combination/MIC of RW01 alone,FIC of antibiotic (FICATB)=MIC of ATB in combination/MIC of ATB alone,FICI=FICRW01 +FICATB.
(§4) FICI was interpreted as follows: synergistic effect if FICI is ≤0.5; additive effect if 0.5 < FICI ≤ 1.0; indifferent effect if 1.0 < FICI ≤ 2.0; and finally, antagonistic effect if FICI is >2.0. The average FICI considering the antibiotic MIC (no growth in any of the replicates) at different concentrations of RW01 was calculated ([28]).

P. aeruginosa 125B = assay: as above; format: cell-based, Pseudomonas aeruginosa; details: Pseudomonas aeruginosa; strain 125B; agent alone; 37°C, 18–22 h; three biological replicates
Description: as §2, §3, §4

P. aeruginosa 41A = assay: as above; format: cell-based, Pseudomonas aeruginosa; details: Pseudomonas aeruginosa; strain 41A; agent alone; 37°C, 18–22 h; three biological replicates
Description: as §2, §3, §4

P. aeruginosa 41B = assay: as above; format: cell-based, Pseudomonas aeruginosa; details: Pseudomonas aeruginosa; strain 41B; agent alone; 37°C, 18–22 h; three biological replicates
Description: as §2, §3, §4

P. aeruginosa PAO1 = assay: as above; format: cell-based, Pseudomonas aeruginosa; details: Pseudomonas aeruginosa, PAO1, strain PAO1; agent alone; 37°C, 18–22 h; three biological replicates; read-out: MIC
Description: as §2, §3, §4

P. aeruginosa PAOUW = assay: as above; format: cell-based, Pseudomonas aeruginosa; details: Pseudomonas aeruginosa, strain PAOUW; agent alone; 37°C, 18–22 h; three biological replicates; read-out: MIC
Description: as §2, §3, §4

P. aeruginosa PAOUW∆oprF = assay: as above; format: cell-based, Pseudomonas aeruginosa; details: Pseudomonas aeruginosa, strain PAOUWΔoprF; agent alone; 37°C, 18–22 h; three biological replicates
Description: as §2, §3, §4

P. aeruginosa PAOΔmexR = assay: as above; format: cell-based, Pseudomonas aeruginosa
Description: as §2, §3, §4

P. aeruginosa PAOΔmexZ = assay: as above; format: cell-based, Pseudomonas aeruginosa; details: Pseudomonas aeruginosa, strain PAOΔmexZ; agent alone; 37°C, 18–22 h; three biological replicates
Description: as §2, §3, §4

P. aeruginosa PAOΔoprM = assay: as above; format: cell-based, Pseudomonas aeruginosa; details: Pseudomonas aeruginosa
Description: as §2, §3, §4

Row | SMILES | MIC (P. aeruginosa PAO1, WT) | MIC [1] | MIC [2] | MIC [3] | MIC [4] | MIC [5] | MIC [6] | MIC [7] | MIC [8] | MIC [9] | MIC [10] | MIC [11] | MIC [12] | MIC [13] | MIC [14] | MIC [15] | MIC [16] | MIC [18] | MIC [19] | MIC [21] | other results
1 | NCC[C@H](O)C(=O)N[C@@H]1C[C@H](N)[C@@H](O[C@H]2O[C@H](CN)[C@@H](O)[C@H](O)[C@H]2O)[C@H](O)[C@H]1O[C@H]1O[C@H](CO)[C@@H](O)[C@H](N)[C@H]1O [AMI, amikacin] | ≤ 2 µg/mL | 4 µg/mL (≈ 6.83 µM) | ≤ 2 µg/mL | ≤ 2 µg/mL | ≤ 2 µg/mL | 4 µg/mL (≈ 6.83 µM) | ≤ 2 µg/mL | 4 µg/mL (≈ 6.83 µM) | 4 µg/mL (≈ 6.83 µM) | 4 µg/mL (≈ 6.83 µM) | 8 µg/mL (≈ 13.7 µM) | 4 µg/mL (≈ 6.83 µM) | ≤ 2 µg/mL | 2 to 4 µg/mL (≈ 3.42 to 6.83 µM) | 4 µg/mL (≈ 6.83 µM) | 4 µg/mL (≈ 6.83 µM) | ≤ 2 µg/mL | ≤ 2 µg/mL | ≤ 2 µg/mL | 4 µg/mL (≈ 6.83 µM) | MIC [17]: ≤ 2 µg/mL; MIC [20]: ≤ 2 µg/mL
2 | C[C@H]1[C@H](NC(=O)/C(=N\OC(C)(C)C(=O)O)c2csc(N)n2)C(=O)N1S(=O)(=O)O [Aztreonam, aztreonam] | 2 to 4 µg/mL (≈ 4.59 to 9.19 µM) | 16 µg/mL (≈ 36.7 µM) | 8 to 16 µg/mL (≈ 18.4 to 36.7 µM) | 2 to 4 µg/mL (≈ 4.59 to 9.19 µM) | 16 µg/mL (≈ 36.7 µM) | ≤ 2 µg/mL | 16 µg/mL (≈ 36.7 µM) | ≤ 2 µg/mL | 4 to 8 µg/mL (≈ 9.19 to 18.4 µM) | 4 µg/mL (≈ 9.19 µM) | 4 µg/mL (≈ 9.19 µM) | – | 16 µg/mL (≈ 36.7 µM) | 16 µg/mL (≈ 36.7 µM) | ≤ 2 µg/mL | ≤ 2 µg/mL | – | 16 µg/mL (≈ 36.7 µM) | 16 µg/mL (≈ 36.7 µM) | ≤ 2 µg/mL | MIC (P. aeruginosa 125A): 8 µg/mL; MIC (P. aeruginosa 125B): 8 µg/mL; MIC (P. aeruginosa 41A): 8 µg/mL; MIC (P. aeruginosa 41B): 8 µg/mL; MIC (P. aeruginosa PAO1): 8 µg/mL; MIC (P. aeruginosa PAOUW): 2 µg/mL; MIC (P. aeruginosa PAOUW∆oprF): 8 µg/mL; MIC (P. aeruginosa PAOΔmexR; Pseudomonas aeruginosa): 4 µg/mL; MIC (P. aeruginosa PAOΔmexZ): 8 µg/mL; MIC (P. aeruginosa PAOΔoprM): 0.5 µg/mL
3 | O=C(O)c1cn(C2CC2)c2cc(N3CCNCC3)c(F)cc2c1=O [CIP, ciprofloxacin] | – | – | – | 4 µg/mL (≈ 12.1 µM) | 0.5 µg/mL (≈ 1.51 µM) | – | 0.5 µg/mL (≈ 1.51 µM) | – | – | – | 0.5 µg/mL (≈ 1.51 µM) | 0.5 to 1 µg/mL (≈ 1.51 to 3.02 µM) | 0.5 µg/mL (≈ 1.51 µM) | 0.5 µg/mL (≈ 1.51 µM) | – | – | – | 0.5 µg/mL (≈ 1.51 µM) | 0.5 µg/mL (≈ 1.51 µM) | – | –
4 | CO/N=C(\C(=O)N[C@@H]1C(=O)N2C(C(=O)[O-])=C(C[N+]3(C)CCCC3)CS[C@H]12)c1csc(N)n1 [Cefepime, cefepime] | ≤ 1 µg/mL | 4 µg/mL (≈ 8.32 µM) | 4 µg/mL (≈ 8.32 µM) | 4 µg/mL (≈ 8.32 µM) | 4 µg/mL (≈ 8.32 µM) | ≤ 1 µg/mL | 4 µg/mL (≈ 8.32 µM) | ≤ 1 µg/mL | – | 4 µg/mL (≈ 8.32 µM) | 4 µg/mL (≈ 8.32 µM) | 4 µg/mL (≈ 8.32 µM) | 4 µg/mL (≈ 8.32 µM) | 4 to 8 µg/mL (≈ 8.32 to 16.6 µM) | ≤ 1 µg/mL | ≤ 1 µg/mL | 4 µg/mL (≈ 8.32 µM) | 4 µg/mL (≈ 8.32 µM) | 4 µg/mL (≈ 8.32 µM) | ≤ 1 µg/mL | MIC (P. aeruginosa 125A): 4 µg/mL; MIC (P. aeruginosa 125B): 4 µg/mL; MIC (P. aeruginosa 41A): 8 µg/mL; MIC (P. aeruginosa 41B): 8 µg/mL; MIC (P. aeruginosa PAO1): 2 µg/mL; MIC (P. aeruginosa PAOUW): 4 µg/mL; MIC (P. aeruginosa PAOUW∆oprF): 0.5 µg/mL; Antibiotic MIC + RW01 100 mg/L (P. aeruginosa PAOΔmexR; strain PAOΔmexR, MIC of the antibiotic with fixed 100 mg/L RW01): 0.5 µg/mL; Potentiation (fold) (P. aeruginosa PAOΔmexR; strain PAOΔmexR, antibiotic MIC alone vs with RW01 100 mg/L): ≥ 8 fold; MIC (P. aeruginosa PAOΔmexZ): 2 µg/mL; MIC (P. aeruginosa PAOΔoprM): 1 µg/mL; MIC [17]: 4 µg/mL (≈ 8.32 µM)
